Experimental findings from ChEMBL document CHEMBL4699645 (2020) are described below.

Assay [1] has as its target Neuronal acetylcholine receptor; alpha3/beta2 (Rattus norvegicus, UniProt P04757+P12390). In words: Antagonist activity at rat alpha3beta2 nAChR expressed in Xenopus laevis oocytes assessed as inhibition of Ach-induced response at -70 mV holding potential incubated for 5 mins by voltage-clamp assay. Format: cell-based, Oocyte.
Assay [2] addresses Neuronal acetylcholine receptor; alpha3/beta4 (Rattus norvegicus, UniProt P04757+P12392). Kind of assay: Antagonist activity at rat alpha3beta4 nAChR expressed in Xenopus laevis oocytes assessed as inhibition of Ach-induced response at -70 mV holding potential incubated for 5 mins by voltage-clamp assay. Format: cell-based, Oocyte.
For another assay, the species on record is Rattus norvegicus. In words: Selectivity index, ratio of IC50 for rat alpha3beta4 nAChR expressed in Xenopus laevis oocytes to IC50 for rat alpha3beta2 nAChR expressed in Xenopus laevis oocytes. Format: cell-based.
In a further assay the test system is Hi-5. Kind of assay: Displacement of [125I]-alpha-bungarotoxin from Aplysia californica C-terminal His6-tagged N-terminal gp67 signal peptide-tagged acetylcholine receptor binding protein expressed in Hi5 insect cells preincubated for 3 hrs followed by [125I]-alpha-bungarotoxin measured after 5 mins by radioligand binding assay relative to LvIA IC50. The note with it: time 185.0 min. On the technique in general: Loss of bound radioactivity is the signal in a displacement assay; it reports binding, not function.

A short description of assay [3]: Displacement of [125I]-alpha-bungarotoxin from Aplysia californica C-terminal His6-tagged N-terminal gp67 signal peptide-tagged acetylcholine receptor binding protein expressed in Hi5 insect cells preincubated for 3 hrs followed by [125I]-alpha-bungarotoxin measured after 5 mins by radioligand binding assay.
In assay [4] the target is Neuronal acetylcholine receptor; alpha3/beta2 (Rattus norvegicus) (UniProt P04757+P12390). Kind of assay: Antagonist activity at rat alpha3beta2 nAChR expressed in Xenopus laevis oocytes assessed as inhibition of Ach-induced response at -70 mV holding potential incubated for 5 mins by voltage-clamp assay relative to LvIA IC50. Format: cell-based. The note with it: Oocyte.

Assay [5] addresses Neuronal acetylcholine receptor; alpha3/beta4 (Rattus norvegicus) (UniProt P04757+P12392). In words: Antagonist activity at rat alpha3beta4 nAChR expressed in Xenopus laevis oocytes assessed as inhibition of Ach-induced response at -70 mV holding potential incubated for 5 mins by voltage-clamp assay relative to LvIA IC50. The note with it: Oocyte. It is filed as cell-based.

Where a SMILES comes first, the peptide text is derived from it. Bridges are numbered along the chain shown (N, C = ends).

Neuronal acetylcholine receptor; alpha3/beta4, sequence (P04757 whole entry): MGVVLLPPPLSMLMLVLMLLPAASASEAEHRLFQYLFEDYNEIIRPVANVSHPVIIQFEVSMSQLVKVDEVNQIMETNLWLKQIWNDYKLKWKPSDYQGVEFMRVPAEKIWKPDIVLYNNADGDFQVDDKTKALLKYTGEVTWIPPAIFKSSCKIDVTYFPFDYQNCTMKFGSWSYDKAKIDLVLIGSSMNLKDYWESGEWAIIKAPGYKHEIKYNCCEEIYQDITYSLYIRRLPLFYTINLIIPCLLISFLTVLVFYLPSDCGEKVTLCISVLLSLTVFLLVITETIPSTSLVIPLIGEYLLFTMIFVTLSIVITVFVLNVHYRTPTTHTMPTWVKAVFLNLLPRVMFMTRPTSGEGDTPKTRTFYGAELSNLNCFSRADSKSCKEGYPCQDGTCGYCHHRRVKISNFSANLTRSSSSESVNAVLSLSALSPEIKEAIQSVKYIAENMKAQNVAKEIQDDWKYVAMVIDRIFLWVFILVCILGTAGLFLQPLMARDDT
Neuronal acetylcholine receptor; alpha3/beta4, sequence (P12392 whole entry): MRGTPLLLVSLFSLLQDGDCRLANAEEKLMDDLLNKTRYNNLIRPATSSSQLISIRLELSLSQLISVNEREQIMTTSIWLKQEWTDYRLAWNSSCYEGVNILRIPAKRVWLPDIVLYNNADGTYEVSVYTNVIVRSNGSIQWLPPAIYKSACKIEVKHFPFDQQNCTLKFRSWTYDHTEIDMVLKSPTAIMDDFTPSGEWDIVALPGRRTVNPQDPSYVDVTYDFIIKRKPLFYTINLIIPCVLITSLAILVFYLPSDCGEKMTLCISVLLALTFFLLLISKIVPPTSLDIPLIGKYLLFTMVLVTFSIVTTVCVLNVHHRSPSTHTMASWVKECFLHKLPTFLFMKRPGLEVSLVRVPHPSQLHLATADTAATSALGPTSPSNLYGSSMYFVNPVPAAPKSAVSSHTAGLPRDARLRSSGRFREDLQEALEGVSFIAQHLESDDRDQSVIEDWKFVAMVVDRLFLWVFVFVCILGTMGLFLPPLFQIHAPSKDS
Neuronal acetylcholine receptor; alpha3/beta2, sequence (P04757 whole entry): as the sequence (P04757 whole entry) above
Neuronal acetylcholine receptor; alpha3/beta2, sequence (P12390 whole entry): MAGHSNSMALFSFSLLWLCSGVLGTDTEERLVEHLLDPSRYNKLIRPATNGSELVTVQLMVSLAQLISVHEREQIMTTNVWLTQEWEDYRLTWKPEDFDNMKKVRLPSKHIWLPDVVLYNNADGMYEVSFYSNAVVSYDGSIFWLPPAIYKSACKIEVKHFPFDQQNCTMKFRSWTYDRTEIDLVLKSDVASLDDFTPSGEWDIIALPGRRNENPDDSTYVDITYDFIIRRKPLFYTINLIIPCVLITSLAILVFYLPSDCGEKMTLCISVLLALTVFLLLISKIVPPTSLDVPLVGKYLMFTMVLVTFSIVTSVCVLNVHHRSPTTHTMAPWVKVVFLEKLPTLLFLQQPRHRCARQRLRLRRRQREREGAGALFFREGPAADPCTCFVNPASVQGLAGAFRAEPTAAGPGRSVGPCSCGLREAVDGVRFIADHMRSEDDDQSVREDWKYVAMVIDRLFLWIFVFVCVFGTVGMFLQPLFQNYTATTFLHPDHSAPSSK

As usually defined, the IC50 is the concentration that inhibits the measured activity by half. Consider `CC[C@H](C)[C@@H]1NC(=O)[C@H](CCC(=O)O)NC(=O)[C@@H]2CCCN2C(=O)[C@H](Cc2cnc[nH]2)NC(=O)[C@H](CC(=O)O)NC(=O)[C@H](C(C)C)NC(=O)[C@H](CCCCN)NC(=O)[C@@H]2CSSC[C@H](NC(=O)CN)C(=O)N[C@@H](CSSC[C@@H](C(N)=O)NC1=O)C(=O)N[C@@H](CO)C(=O)N[C@@H](Cc1cnc[nH]1)C(=O)N1CCC[C@H]1C(=O)N[C@@H](C)C(=O)N2` (H-GCCSHPACKVDHPEIC-NH2; disulfide 2-8, 3-16), for which the 50% inhibitory concentration (IC50) in assay [1] came out at 0.0038 µM; in assay [2], 2.07 µM. For the same compound, the Ratio IC50 in the assay filed under Rattus norvegicus is 544.

Consider `CC[C@H](C)[C@@H]1NC(=O)[C@H](CCC(=O)O)NC(=O)[C@@H]2CCCN2C(=O)[C@H](C)NC(=O)[C@H](CC(=O)O)NC(=O)[C@H](C(C)C)NC(=O)[C@H](CC(N)=O)NC(=O)[C@@H]2CSSC[C@H](NC(=O)CN)C(=O)N[C@@H](CSSC[C@@H](C(N)=O)NC1=O)C(=O)N[C@@H](CO)C(=O)N[C@@H](Cc1cnc[nH]1)C(=O)N1CCC[C@H]1C(=O)N[C@@H](C)C(=O)N2` (H-GCCSHPACNVDAPEIC-NH2; disulfide 2-8, 3-16), for which, in the assay on Hi-5, the Ratio IC50 came to 2.46. Moreover, the IC50 in assay [1] was > 10 µM; in assay [2], > 10 µM; in assay [3], 670 µM.

On to `CC(C)[C@@H]1NC(=O)[C@H](CC(N)=O)NC(=O)[C@@H]2CSSC[C@H](NC(=O)CN)C(=O)N[C@@H](CSSC[C@@H](C(N)=O)NC(=O)[C@H](C)NC(=O)[C@H](CCC(=O)O)NC(=O)[C@@H]3CCCN3C(=O)[C@H](Cc3cnc[nH]3)NC(=O)[C@H](CC(=O)O)NC1=O)C(=O)N[C@@H](CO)C(=O)N[C@@H](Cc1cnc[nH]1)C(=O)N1CCC[C@H]1C(=O)N[C@@H](C)C(=O)N2` (H-GCCSHPACNVDHPEAC-NH2; disulfide 2-8, 3-16), for which the Ratio IC50 with Hi-5 is 1.02; in assay [4] it was 69; in assay [5], 4.8; in the assay filed under Rattus norvegicus, 1.3. In addition, the values for the half-inhibitory concentration (IC50) in assay [1], in assay [2] and in assay [3] were 1.08 µM, 1.4 µM and 24 µM, respectively.

Take `CC[C@H](C)[C@@H]1NC(=O)[C@H](CCC(=O)O)NC(=O)[C@@H]2CCCN2C(=O)[C@H](Cc2cnc[nH]2)NC(=O)[C@H](CC(=O)O)NC(=O)[C@H](C(C)C)NC(=O)[C@H](CC(N)=O)NC(=O)[C@@H]2CSSC[C@H](NC(=O)CN)C(=O)N[C@@H](CSSC[C@@H](C(N)=O)NC1=O)C(=O)N[C@@H](C)C(=O)N[C@@H](Cc1cnc[nH]1)C(=O)N1CCC[C@H]1C(=O)N[C@@H](C)C(=O)N2` (H-GCCAHPACNVDHPEIC-NH2; disulfide 2-8, 3-16): the Ratio IC50 with Hi-5 is -0.47; in assay [4] it was 3.5; in assay [5], 0.7; in the assay filed under Rattus norvegicus, 3.6. Moreover, the results for the half-inhibitory concentration (IC50) in assay [1], in assay [2] and in assay [3] were 0.054 µM, 0.193 µM and 0.78 µM, respectively.

Regarding `CC[C@H](C)[C@@H]1NC(=O)[C@H](CCC(=O)O)NC(=O)[C@@H]2CCCN2C(=O)[C@H](Cc2cnc[nH]2)NC(=O)[C@H](CC(=O)O)NC(=O)[C@H](C(C)C)NC(=O)[C@H](CC(N)=O)NC(=O)[C@@H]2CSSC[C@H](NC(=O)CN)C(=O)N[C@@H](CSSC[C@@H](C(N)=O)NC1=O)C(=O)N[C@@H](CO)C(=O)N[C@@H](C)C(=O)N1CCC[C@H]1C(=O)N[C@@H](C)C(=O)N2` (H-GCCSAPACNVDHPEIC-NH2; disulfide 2-8, 3-16), in the assay with Hi-5, the Ratio IC50 was 2.13. The figures for the IC50 in assay [1], in assay [2] and in assay [3] were > 10 µM, > 10 µM and 310 µM, respectively.

Turning to `CC[C@H](C)[C@@H]1NC(=O)[C@H](CCC(=O)O)NC(=O)[C@@H]2CCCN2C(=O)[C@H](Cc2cnc[nH]2)NC(=O)[C@H](CC(=O)O)NC(=O)[C@H](C(C)C)NC(=O)[C@H](CC(=O)O)NC(=O)[C@@H]2CSSC[C@H](NC(=O)CN)C(=O)N[C@@H](CSSC[C@@H](C(N)=O)NC1=O)C(=O)N[C@@H](CO)C(=O)N[C@@H](Cc1cnc[nH]1)C(=O)N1CCC[C@H]1C(=O)N[C@@H](C)C(=O)N2` (H-GCCSHPACDVDHPEIC-NH2; disulfide 2-8, 3-16), the IC50 in assay [1] and in assay [2] was > 10 µM each time. The Ratio IC50 in assay [4] worked out at 0.24; in assay [5] it was 7.1.

Regarding `CC[C@H](C)[C@@H]1NC(=O)[C@H](CCC(=O)O)NC(=O)[C@@H]2CCCN2C(=O)[C@H](Cc2cnc[nH]2)NC(=O)[C@H](C)NC(=O)[C@H](C(C)C)NC(=O)[C@H](CC(N)=O)NC(=O)[C@@H]2CSSC[C@H](NC(=O)CN)C(=O)N[C@@H](CSSC[C@@H](C(N)=O)NC1=O)C(=O)N[C@@H](CO)C(=O)N[C@@H](Cc1cnc[nH]1)C(=O)N1CCC[C@H]1C(=O)N[C@@H](C)C(=O)N2` (H-GCCSHPACNVAHPEIC-NH2; disulfide 2-8, 3-16), the Ratio IC50 is -1.39 with Hi-5, 0.8 in assay [4], 0.2 in assay [5] and 5.7 in the assay listed under Rattus norvegicus. For the same compound, the concentration for half-maximal inhibition (IC50) came to 0.012 µM in assay [1], 0.0679 µM in assay [2] and 0.094 µM in assay [3].

For `CC[C@H](C)[C@@H]1NC(=O)[C@H](CCC(=O)O)NC(=O)[C@@H]2CCCN2C(=O)[C@H](Cc2cnc[nH]2)NC(=O)[C@H](CC(=O)O)NC(=O)[C@H](C(C)C)NC(=O)[C@H]([C@@H](C)CC)NC(=O)[C@@H]2CSSC[C@H](NC(=O)CN)C(=O)N[C@@H](CSSC[C@@H](C(N)=O)NC1=O)C(=O)N[C@@H](CO)C(=O)N[C@@H](Cc1cnc[nH]1)C(=O)N1CCC[C@H]1C(=O)N[C@@H](C)C(=O)N2` (H-GCCSHPACIVDHPEIC-NH2; disulfide 2-8, 3-16), the IC50 in assay [1] came out at 0.0075 µM; in assay [2] it was 5.56 µM. Further, the Ratio IC50 came out at 0.21 in assay [4], 1.1 in assay [5] and 742 in the assay listed under Rattus norvegicus.

On to `CC[C@H](C)[C@@H]1NC(=O)[C@H](CCC(=O)O)NC(=O)[C@@H]2CCCN2C(=O)[C@H](Cc2cnc[nH]2)NC(=O)[C@H](CC(=O)O)NC(=O)[C@H](C(C)C)NC(=O)CNC(=O)[C@@H]2CSSC[C@H](NC(=O)CN)C(=O)N[C@@H](CSSC[C@@H](C(N)=O)NC1=O)C(=O)N[C@@H](CO)C(=O)N[C@@H](Cc1cnc[nH]1)C(=O)N1CCC[C@H]1C(=O)N[C@@H](C)C(=O)N2` (H-GCCSHPACGVDHPEIC-NH2; disulfide 2-8, 3-16), for which the IC50 in assay [1] and in assay [2] was > 10 µM throughout. In addition, the Ratio IC50 in assay [4] is 0.48; in assay [5], 19.2.

`CC[C@H](C)[C@@H]1NC(=O)[C@H](CCC(=O)O)NC(=O)[C@@H]2CCCN2C(=O)[C@H](Cc2cnc[nH]2)NC(=O)[C@H](CC(=O)O)NC(=O)[C@H](C(C)C)NC(=O)[C@H](CC(N)=O)NC(=O)[C@@H]2CSSC[C@H](NC(=O)CN)C(=O)N[C@@H](CSSC[C@@H](C(N)=O)NC1=O)C(=O)N[C@@H](CO)C(=O)N[C@@H](Cc1cnc[nH]1)C(=O)N[C@@H](C)C(=O)N[C@@H](C)C(=O)N2` (H-GCCSHAACNVDHPEIC-NH2; disulfide 2-8, 3-16): the Ratio IC50 in the assay on Hi-5 came out at 1.17. The 50% inhibitory concentration (IC50) in assay [1] was > 10 µM; in assay [2], > 10 µM; in assay [3], 34 µM.

Regarding `CC[C@H](C)[C@@H]1NC(=O)[C@H](CCC(=O)O)NC(=O)[C@H](C)NC(=O)[C@H](Cc2cnc[nH]2)NC(=O)[C@H](CC(=O)O)NC(=O)[C@H](C(C)C)NC(=O)[C@H](CC(N)=O)NC(=O)[C@@H]2CSSC[C@H](NC(=O)CN)C(=O)N[C@@H](CSSC[C@@H](C(N)=O)NC1=O)C(=O)N[C@@H](CO)C(=O)N[C@@H](Cc1cnc[nH]1)C(=O)N1CCC[C@H]1C(=O)N[C@@H](C)C(=O)N2` (H-GCCSHPACNVDHAEIC-NH2; disulfide 2-8, 3-16), the Ratio IC50 was found to be 0.51 in the assay on Hi-5, 13 in assay [4], 1.9 in assay [5] and 2.7 in the assay listed under Rattus norvegicus. In addition, the IC50 in assay [1] was found to be 0.202 µM; in assay [2] it was 0.543 µM; in assay [3], 7.5 µM.

For the compound `CC[C@H](C)[C@@H]1NC(=O)[C@H](CCC(=O)O)NC(=O)[C@@H]2CCCN2C(=O)[C@H](Cc2cnc[nH]2)NC(=O)[C@H](CC(=O)O)NC(=O)[C@H](C(C)C)NC(=O)[C@H](CC(C)C)NC(=O)[C@@H]2CSSC[C@H](NC(=O)CN)C(=O)N[C@@H](CSSC[C@@H](C(N)=O)NC1=O)C(=O)N[C@@H](CO)C(=O)N[C@@H](Cc1cnc[nH]1)C(=O)N1CCC[C@H]1C(=O)N[C@@H](C)C(=O)N2` (H-GCCSHPACLVDHPEIC-NH2; disulfide 2-8, 3-16), the results for the IC50 in assay [1] and in assay [2] were 0.0032 µM and 0.325 µM, respectively. For the same compound, the Ratio IC50 in the assay filed under Rattus norvegicus came out at 102.

Take `CC[C@H](C)[C@@H]1NC(=O)[C@H](CCC(=O)O)NC(=O)[C@@H]2CCCN2C(=O)[C@H](Cc2cnc[nH]2)NC(=O)[C@H](CC(=O)O)NC(=O)[C@H](C)NC(=O)[C@H](CC(N)=O)NC(=O)[C@@H]2CSSC[C@H](NC(=O)CN)C(=O)N[C@@H](CSSC[C@@H](C(N)=O)NC1=O)C(=O)N[C@@H](CO)C(=O)N[C@@H](Cc1cnc[nH]1)C(=O)N1CCC[C@H]1C(=O)N[C@@H](C)C(=O)N2` (H-GCCSHPACNADHPEIC-NH2; disulfide 2-8, 3-16): the Ratio IC50 in the assay on Hi-5 came to 0.036; in assay [4], 4.5; in assay [5] it was 1.1; in the assay filed under Rattus norvegicus, 4.4. The results for the half-maximal inhibitory concentration (IC50) in assay [1], in assay [2] and in assay [3] were 0.071 µM, 0.309 µM and 2.5 µM, respectively.
